Data: PubChem BioAssay AID1963866 (Molecular Pharmacology Branch, DTP, NCI, 2024)

Test system: PDC KRAS tumor spheroids with HUVEC/MSC, viability
Assay: Anticancer human tumor 349418-098-R-PDC patient-derived lung adenocarcinoma cell line growth inhibition [KRAS2]
Settings: for viability, T/C: stronger effect = lower value
Text: Multicellular complex tumor spheroid response to RAS pathway inhibitors in combination with a targeted agents in patient-derived cell lines with oncogenic KRAS variants from multiple cancer types
A high-throughput screen of multi-cell type tumor spheroids was designed to identify active combinations of targeted small molecules and KRAS pathway inhibitors. Complex spheroids include a stromal component modeled by human endothelial cells (HUVEC) and fibroblasts modeled by human mesenchymal stem cells (MSCs). The concentration ranges selected for each drug and investigational agent were based upon clinically achievable concentrations if the clinical Cmax of the agent was known.
Compounds. The drugs and investigational agents: BI-3406 (NSC825286), BAY-293 (NSC824723), batoprotafib (TNO155; NSC825523), sotorasib (AMG 510; NSC818433), MRTX1257 (NSC819558), elimusertib (BAY 1895344; NSC800525), molibresib (GSK525762; NSC774829), temuterkib (LY3214996; NSC803410), venetoclax (NSC766270), alisertib (NSC759677), olaparib (NSC753686), talazoparib (NSC767125), erdafitinib (NSC781556), ipatasertib (NSC767898), cabozantinib (NSC761068), nintedanib (NSC756659), abemaciclib (NSC768073), docetaxel (NSC628503), trametinib (NSC758246), and sapanisertib (NSC764658) were obtained from the National Cancer Institute (NCI) Developmental Therapeutics Program Chemical Repository. The FDA-approved anticancer drug set is available from the Developmental Therapeutics Program. […] The stock solutions were prepared in dimethyl sulfoxide (DMSO, Sigma-Aldrich, St. Louis, MO, cat. D2650) at 800-fold the tested concentration and stored at -70 degrees C prior to their use. All drugs and investigational agents were tested over a range starting from a high concentration at or near the clinical Cmax and decreasing in half-log increments. If the clinical Cmax for an agent had not been determined, the highest concentration tested was 10 microM.
Cell Culture. All cells were maintained in an incubator at 37 degrees C and 5% CO2 with 95% humidity. The PDC lines were cultured according to standard operating procedures established by the NCI PDMR (https://pdmr.cancer.gov/sops/default.htm). Briefly, all PDCs were thawed and cultured in Matrigel-coated flasks prepared with a working solution of 1X Ham's F-12 nutrient mix, without supplementation (Invitrogen, Waltham, MA, cat. 11765054), 100 U/mL penicillin-streptomycin (Invitrogen, cat. 15140122), and 2.5% Matrigel (Corning Inc., Corning, NY, cat. 354248) for the first three passages. All PDCs were cultured in complete DMEM/F-12 media containing advanced DMEM/F-12 (Invitrogen, cat. 12634028), 4.9% defined fetal bovine serum, heat inactivated (HyClone Laboratories Inc., Logan, UT, cat. SH30070.03HI), 389 ng/mL hydrocortisone (Sigma-Aldrich, cat. H4001), 9.7 ng/mL human EGF recombinant protein (Invitrogen, cat. PHG0313), 23.4 microg/mL adenine (Sigma-Aldrich, cat. A2786), 97.3 U/mL penicillin-streptomycin (Invitrogen, cat. 15140122), 1.9 mM L-glutamine (Invitrogen, cat. 25030081), and 9.7 microM Y-27632 dihydrochloride (Tocris Bioscience, Bristol, United Kingdom, cat. 1254). The PDCs were cultured in complete DMEM/F12 media without 9.7 microM Y-27632 dihydrochloride for at least two passages prior to the screen. The established cell line HOP-62 was cultured in RPMI 1640 medium, HEPES (Invitrogen, cat. 22400105) with 10% defined fetal bovine serum (HyClone Laboratories Inc., cat. SH30070.03) and 2 mM L-glutamine (Invitrogen, cat. 25030081). The pooled donor HUVEC were cultured in endothelial cell growth medium 2 (PromoCell, Heidelberg, Germany, cat. C-22011) and the hMSC were cultured in mesenchymal stem cell growth medium 2 (PromoCell, cat. C-28009). For all experiments, HUVEC and hMSC were used at passages </=5, while the malignant cell lines were used at passages </=15. […]

[1] = curve of first compound, second compound 0.0316 µM
[2] = curve of first compound, second compound 0.1 µM
[3] = curve of first compound, second compound 0.316 µM
[4] = curve of first compound, second compound 1 µM
[5] = curve of first compound, second compound 3.16 µM
[6] = second compound 0.0316 µM, first compound 0.0316 µM
[7] = second compound 0.0316 µM, first compound 0.1 µM
[8] = second compound 0.0316 µM, first compound 0.316 µM
[9] = second compound 0.0316 µM, first compound 1 µM
[10] = second compound 0.0316 µM, first compound 3.16 µM
[11] = second compound 0.0316 µM, first compound 10 µM
[12] = second compound 0.1 µM, first compound 0.0316 µM
[13] = second compound 0.1 µM, first compound 0.1 µM
[14] = second compound 0.1 µM, first compound 0.316 µM
[15] = second compound 0.1 µM, first compound 1 µM
[16] = second compound 0.1 µM, first compound 3.16 µM
[17] = second compound 0.1 µM, first compound 10 µM
[18] = second compound 0.316 µM, first compound 0.0316 µM
[19] = second compound 0.316 µM, first compound 0.1 µM
[20] = second compound 0.316 µM, first compound 0.316 µM
[21] = second compound 0.316 µM, first compound 1 µM
[22] = second compound 0.316 µM, first compound 3.16 µM
[23] = second compound 0.316 µM, first compound 10 µM
[24] = second compound 1 µM, first compound 0.0316 µM
[25] = second compound 1 µM, first compound 0.1 µM
[26] = second compound 1 µM, first compound 0.316 µM
[27] = second compound 1 µM, first compound 1 µM
[28] = second compound 1 µM, first compound 3.16 µM
[29] = second compound 1 µM, first compound 10 µM
[30] = second compound 3.16 µM, first compound 0.0316 µM
[31] = second compound 3.16 µM, first compound 0.1 µM
[32] = second compound 3.16 µM, first compound 0.316 µM
[33] = second compound 3.16 µM, first compound 1 µM
[34] = second compound 3.16 µM, first compound 3.16 µM
[35] = second compound 3.16 µM, first compound 10 µM
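Further: spheroids exposed to compounds for seven days before readout.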

Question: What does the source list for `CC1(C)CCC(CN2CCN(c3ccc(C(=O)NS(=O)(=O)c4ccc(NCC5CCOCC5)c([N+](=O)[O-])c4)c(Oc4cnc5[nH]ccc5c4)c3)CC2)=C(c2ccc(Cl)cc2)C1` + C=CC(=O)N1CCN(c2nc(OCC3CCCN3C)nc3c2CCN(c2cccc4cccc(C)c24)C3)CC1CC#N?
Answer: IC50 [1]: 1680 nM; IC50 [2]: 1340 nM; IC50 [3]: 1510 nM; IC50 [4]: 1180 nM; IC50 [5]: < 31.6 nM; viability, T/C [6]: 97.5%; viability, T/C [7]: 100%; viability, T/C [8]: 89.4%; viability, T/C [9]: 80%; viability, T/C [10]: 13.8%; viability, T/C [11]: 4.29%; viability, T/C [12]: 96.2%; viability, T/C [13]: 94.8%; viability, T/C [14]: 76.5%; viability, T/C [15]: 66.2%; viability, T/C [16]: 13.6%; viability, T/C [17]: 4.13%; viability, T/C [18]: 92.6%; viability, T/C [19]: 87.5%; viability, T/C [20]: 77.1%; viability, T/C [21]: 72.1%; viability, T/C [22]: 10.9%; viability, T/C [23]: 3.73%; viability, T/C [24]: 76.8%; viability, T/C [25]: 75%; viability, T/C [26]: 68.2%; viability, T/C [27]: 57.7%; viability, T/C [28]: 4.26%; viability, T/C [29]: 1.75%; viability, T/C [30]: 0.15%; viability, T/C [31]: 0.15%; viability, T/C [32]: 0.14%; viability, T/C [33]: 0.2%; viability, T/C [34]: 0.09%; viability, T/C [35]: 0.11%

Question: Which results are given for `CN(C)C/C=C/C(=O)Nc1cc2c(Nc3ccc(F)c(Cl)c3)ncnc2cc1O[C@H]1CCOC1` + COc1cc2nc(C)nc(NC(C)c3cc(N)cc(C(F)(F)F)c3)c2cc1OC1CCOC1?
Answer: IC50 [2]: > 100 nM; IC50 [3]: > 100 nM; IC50 [4]: > 100 nM; IC50 [5]: > 100 nM; IC50 (curve of first compound, second compound 10 µM): > 100 nM; viability, T/C (second compound 0.1 µM, first compound 0.000316 µM): 97.6%; viability, T/C (second compound 0.1 µM, first compound 0.001 µM): 104%; viability, T/C (second compound 0.1 µM, first compound 0.00316 µM): 88.8%; viability, T/C (second compound 0.1 µM, first compound 0.01 µM): 95.3%; viability, T/C [12]: 93.8%; viability, T/C [13]: 92.8%; viability, T/C (second compound 0.316 µM, first compound 0.000316 µM): 87.2%; viability, T/C (second compound 0.316 µM, first compound 0.001 µM): 102%; viability, T/C (second compound 0.316 µM, first compound 0.00316 µM): 92.2%; viability, T/C (second compound 0.316 µM, first compound 0.01 µM): 102%; viability, T/C [18]: 87.5%; viability, T/C [19]: 88.2%; viability, T/C (second compound 1 µM, first compound 0.000316 µM): 91.5%; viability, T/C (second compound 1 µM, first compound 0.001 µM): 97.4%; viability, T/C (second compound 1 µM, first compound 0.00316 µM): 101%; viability, T/C (second compound 1 µM, first compound 0.01 µM): 92.8%; viability, T/C [24]: 90.8%; viability, T/C [25]: 91.9%; viability, T/C (second compound 3.16 µM, first compound 0.000316 µM): 74.7%; viability, T/C (second compound 3.16 µM, first compound 0.001 µM): 78.2%; viability, T/C (second compound 3.16 µM, first compound 0.00316 µM): 70.3%; viability, T/C (second compound 3.16 µM, first compound 0.01 µM): 77.7%; viability, T/C [30]: 67.6%; viability, T/C [31]: 75.1%; viability, T/C (second compound 10 µM, first compound 0.000316 µM): 74%; viability, T/C (second compound 10 µM, first compound 0.001 µM): 69.7%; viability, T/C (second compound 10 µM, first compound 0.00316 µM): 73.2%; viability, T/C (second compound 10 µM, first compound 0.01 µM): 78.8%; viability, T/C (second compound 10 µM, first compound 0.0316 µM): 73.4%; viability, T/C (second compound 10 µM, first compound 0.1 µM): 62.8%

Question: How did the IC50 [1] turn out when `CC1OCC2(CCN(c3cnc(Sc4ccnc(N)c4Cl)c(N)n3)CC2)C1N` (centres undefined) + C=CC(=O)N1CCN(c2nc(OCC3CCCN3C)nc3c2CCN(c2cccc4cccc(C)c24)C3)CC1CC#N was run?
Answer: > 10000 nM

Question: And the IC50 [2]?
Answer: > 10000 nM

Question: And the IC50 [3]?
Answer: > 10000 nM

Question: What about the IC50 [4] of the same compound?
Answer: 6510 nM

Question: And the IC50 [5]?
Answer: < 31.6 nM

Question: And the viability, T/C [6]?
Answer: 122%

Question: What about the viability, T/C [7] of the same compound?
Answer: 95.1%

Question: And the viability, T/C [8]?
Answer: 92.8%

Question: And the viability, T/C [9]?
Answer: 96.8%

Question: And the viability, T/C [10]?
Answer: 94.1%

Question: What about the viability, T/C [11] of the same compound?
Answer: 68.7%

Question: What about the viability, T/C [12] of the same compound?
Answer: 108%

Question: What about the viability, T/C [13] of the same compound?
Answer: 93.6%

Question: What about the viability, T/C [14] of the same compound?
Answer: 79.8%

Question: What about the viability, T/C [15] of the same compound?
Answer: 89.4%

Question: And the viability, T/C [16]?
Answer: 78%

Question: And the viability, T/C [17]?
Answer: 83.6%

Question: What about the viability, T/C [18] of the same compound?
Answer: 99%

Question: And the viability, T/C [19]?
Answer: 112%

Question: What about the viability, T/C [20] of the same compound?
Answer: 97.8%

Question: And the viability, T/C [21]?
Answer: 98.5%

Question: What about the viability, T/C [22] of the same compound?
Answer: 96.8%

Question: And the viability, T/C [23]?
Answer: 95.1%

Question: And the viability, T/C [24]?
Answer: 71%

Question: And the viability, T/C [25]?
Answer: 69.4%

Question: And the viability, T/C [26]?
Answer: 62.9%

Question: What about the viability, T/C [27] of the same compound?
Answer: 58.3%

Question: What about the viability, T/C [28] of the same compound?
Answer: 50.2%

Question: What about the viability, T/C [29] of the same compound?
Answer: 49.5%

Question: What about the viability, T/C [30] of the same compound?
Answer: 0.15%

Question: What about the viability, T/C [31] of the same compound?
Answer: 0.15%

Question: And the viability, T/C [32]?
Answer: 0.13%

Question: And the viability, T/C [33]?
Answer: 0.14%

Question: What about the viability, T/C [34] of the same compound?
Answer: 0.14%

Question: And the viability, T/C [35]?
Answer: 0.26%

Question: With `O=C(c1cc(Cc2n[nH]c(=O)c3ccccc23)ccc1F)N1CCN(C(=O)C2CC2)CC1` as the compound, how does the viability, T/C (compound 0.0316 µM) read?
Answer: 91.8% [middle of 5 runs]

Question: What about the viability, T/C (compound 0.1 µM) of the same compound?
Answer: 94.4% [middle of 5 runs]

Question: How did the viability, T/C (compound 0.0316 µM) turn out when `CC(C)NCC(C(=O)N1CCN(c2ncnc3c2C(C)CC3O)CC1)c1ccc(Cl)cc1` (centres undefined) was run?
Answer: 93.4% [middle of 5 runs]

Question: And the viability, T/C (compound 0.1 µM)?
Answer: 77.8% [middle of 5 runs]

Question: And the viability, T/C (compound 0.316 µM)?
Answer: 49.3% [middle of 5 runs]

Question: And the viability, T/C (compound 1 µM)?
Answer: 27.4% [middle of 5 runs]

Question: And the viability, T/C (compound 3.16 µM)?
Answer: 17.1% [middle of 5 runs]

Question: What about the viability, T/C (compound 10 µM) of the same compound?
Answer: 7.52% [middle of 5 runs]

Question: What about the IC50 (curve of compound) of the same compound?
Answer: 334 nM [middle of 5 runs]
